Measurements from patent EP0917878A1, “REMEDIES FOR HEPATITIS” (TORAY INDUSTRIES, INC., priority 1997, dated 1998).

Biological target: T1, α4·IgG heavy chain-β1·IgG heavy chain chimeric protein heterodimer complex (chimeric protein of VLA-4 and IgG heavy chain) (Homo sapiens, UniProt P05556+P13612)
T1 construct: a chimeric molecule being composed with the extracellular region of integrin α4 and an immunoglobulin heavy chain; a chimeric molecule being composed with the extracellular region of integrin β1 and an immunoglobulin heavy chain; made in house; unpurified culture supernatant used in the assay
T1 sequence (P13612 35-977 limits assumed, change not shown): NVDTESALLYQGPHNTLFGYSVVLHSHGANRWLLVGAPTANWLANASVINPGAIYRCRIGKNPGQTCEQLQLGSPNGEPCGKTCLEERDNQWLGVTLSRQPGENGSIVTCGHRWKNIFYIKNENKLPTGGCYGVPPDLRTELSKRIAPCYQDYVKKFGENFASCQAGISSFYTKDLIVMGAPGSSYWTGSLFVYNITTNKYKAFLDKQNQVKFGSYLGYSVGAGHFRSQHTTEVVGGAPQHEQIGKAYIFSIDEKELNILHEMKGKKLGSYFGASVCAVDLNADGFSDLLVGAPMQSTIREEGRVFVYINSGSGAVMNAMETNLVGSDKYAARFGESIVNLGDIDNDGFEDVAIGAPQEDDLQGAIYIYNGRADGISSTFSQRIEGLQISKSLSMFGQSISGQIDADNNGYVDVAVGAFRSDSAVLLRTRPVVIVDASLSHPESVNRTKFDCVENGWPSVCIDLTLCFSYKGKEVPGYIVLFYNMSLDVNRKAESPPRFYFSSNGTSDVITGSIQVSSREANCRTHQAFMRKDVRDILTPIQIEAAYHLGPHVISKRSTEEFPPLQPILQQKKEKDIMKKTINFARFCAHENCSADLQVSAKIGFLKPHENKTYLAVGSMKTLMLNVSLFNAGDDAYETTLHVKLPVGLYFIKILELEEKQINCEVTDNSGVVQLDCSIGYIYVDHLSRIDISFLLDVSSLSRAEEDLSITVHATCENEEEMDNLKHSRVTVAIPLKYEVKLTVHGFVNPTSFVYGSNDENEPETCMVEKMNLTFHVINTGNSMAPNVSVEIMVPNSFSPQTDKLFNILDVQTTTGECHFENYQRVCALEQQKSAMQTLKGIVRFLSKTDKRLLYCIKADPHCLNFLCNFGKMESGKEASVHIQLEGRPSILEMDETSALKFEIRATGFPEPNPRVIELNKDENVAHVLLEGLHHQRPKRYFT
T1 sequence (P05556 21-728 limits assumed, change not shown): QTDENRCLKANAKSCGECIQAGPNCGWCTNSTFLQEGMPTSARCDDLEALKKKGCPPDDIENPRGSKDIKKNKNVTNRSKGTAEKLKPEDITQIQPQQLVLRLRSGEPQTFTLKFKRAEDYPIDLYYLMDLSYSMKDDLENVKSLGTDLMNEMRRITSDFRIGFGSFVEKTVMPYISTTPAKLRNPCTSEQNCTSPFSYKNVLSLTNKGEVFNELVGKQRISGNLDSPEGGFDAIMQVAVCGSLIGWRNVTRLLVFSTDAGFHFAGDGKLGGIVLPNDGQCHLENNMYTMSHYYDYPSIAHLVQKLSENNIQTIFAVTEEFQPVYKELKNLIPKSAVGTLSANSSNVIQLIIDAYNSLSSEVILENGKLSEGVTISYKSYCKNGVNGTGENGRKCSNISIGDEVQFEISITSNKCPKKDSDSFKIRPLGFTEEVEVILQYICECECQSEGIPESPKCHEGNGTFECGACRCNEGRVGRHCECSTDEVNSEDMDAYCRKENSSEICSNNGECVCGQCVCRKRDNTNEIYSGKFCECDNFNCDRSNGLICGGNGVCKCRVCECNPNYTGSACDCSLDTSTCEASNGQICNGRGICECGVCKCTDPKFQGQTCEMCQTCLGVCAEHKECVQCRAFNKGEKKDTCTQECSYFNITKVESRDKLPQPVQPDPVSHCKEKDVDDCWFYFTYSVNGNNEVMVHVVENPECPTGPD
T1 sequence (P01857 99-330 partner limits assumed): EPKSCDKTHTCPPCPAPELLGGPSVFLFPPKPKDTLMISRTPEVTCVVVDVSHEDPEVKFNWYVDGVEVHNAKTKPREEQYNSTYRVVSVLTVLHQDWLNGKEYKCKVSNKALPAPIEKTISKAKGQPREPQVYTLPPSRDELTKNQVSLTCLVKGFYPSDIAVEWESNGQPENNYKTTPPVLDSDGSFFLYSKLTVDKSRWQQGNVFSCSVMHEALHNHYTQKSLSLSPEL
Assay: binding of α4·IgG heavy chain-β1·IgG heavy chain chimeric protein heterodimer complex to solid phase CS-1-IgG (absorbance at 490 nm)
Conditions: for inhibition at 50 µg/mL: Concentration 50 µg/ml, read-out: Inhibition rate (%)
Description: At first, according to the said report (Humphries, M. J. et al., J. Biol. Chem., 262, 6886-6892 (1987)), the peptide fragment of sequence No. 13 (CS-1 peptide) was bound to rabbit IgG (Sigma), to prepare CS-1-IgG. The CS-1-IgG was diluted by PBS(-), and supplied in a 96-well immunoplate (NUNC) by 100 µl/well, and allowed to stand at 4°C for 16 hours, to be formed as a solid phase on the plate.
After completion of standing, the surface of the plate was washed with PBS(-) twice and treated with 1% BSA(heat-denatured at 80°C for 10 minutes)-PBS solution (300 µl/well) at 4°C for 3 hours to block the nonspecific reaction. Then, the solid phase CS-1-IgG and the CHO culture supernatant (100 µl) containing α4·IgG heavy chain-β1·IgG heavy chain chimeric protein heterodimer complex were reacted with each other at 30°C for 3 hours. The non-bound α4·IgG heavy chain-β1·IgG heavy chain chimeric protein heterodimer complex was removed by washing with 0.1% BSA-containing TBS buffer (150 mM NaCl, 25 mM Tris-HCl, 1 mM MnCl2, pH 7.4) twice, and the bound α4·IgG heavy chain-β1·IgG heavy chain chimeric protein heterodimer complex was detected by biotin labeled anti-human IgG antibody (Vector) as the primary antibody and avidin labeled horseradish peroxidase (Sigma) used as the secondary anti body. The surface of the plate was washed with the TBS buffer. Orthophenylenediamine was added as a substrate to it for color development, and the absorbance at 490 nm were measured.
The all peptides were synthesized by a peptide synthesizer. The peptide and 100 µl of CHO cultured supernatant solution containing α4·IgG heavy chain-β1·IgG heavy chain chimeric protein heterodimer complex were mixed at room temperature for 20 minutes, and the binding to CS-1-IgG was determined according to the method in Example 4.
Reagents and the compounds stated in literature were picked up at random, adjusted to a final concentration of 50 µg/ml, and added to the binding assay system of Example 4. Compounds showing inhibitory activity were obtained. […]

inhibition at 50 µg/mL [%] | inhibition of binding to CS-1 peptide (5 mM, Fig. 1) | SMILES
87.5 |  | O=c1ccc2ccc(O)cc2o1 [7-Hydroxycoumarin]
39.5 |  | C[C@H](CCC(=O)O)[C@H]1CC[C@H]2[C@@H]3C(=O)C[C@@H]4CC(=O)CC[C@]4(C)[C@H]3CC(=O)[C@]12C [Dehydrocholic acid]
 | almost perfectly inhibited | O=C(O)CN(CCN(CC(=O)O)CC(=O)O)CC(=O)O [EDTA]
